Measurements: PubChem BioAssay AID623945 (Vanderbilt Specialized Chemistry Center, 2012)

What follows are compounds tested against Muscarinic acetylcholine receptor M4 (Rattus norvegicus) (UniProt P08485) (assay: rat M4 positive allosteric modulator potency, SAR follow-up, selectivity assay for human M4 PAM optimization, CHO cells, Gqi5 chimera, calcium, ACh EC20 (AID 623945)). Settings: CHO rM4/Gqi5 calcium fluorescence, ACh EC20 potentiation.
Sequence of Muscarinic acetylcholine receptor M4 (Rattus norvegicus) (P08485 whole entry, looked up): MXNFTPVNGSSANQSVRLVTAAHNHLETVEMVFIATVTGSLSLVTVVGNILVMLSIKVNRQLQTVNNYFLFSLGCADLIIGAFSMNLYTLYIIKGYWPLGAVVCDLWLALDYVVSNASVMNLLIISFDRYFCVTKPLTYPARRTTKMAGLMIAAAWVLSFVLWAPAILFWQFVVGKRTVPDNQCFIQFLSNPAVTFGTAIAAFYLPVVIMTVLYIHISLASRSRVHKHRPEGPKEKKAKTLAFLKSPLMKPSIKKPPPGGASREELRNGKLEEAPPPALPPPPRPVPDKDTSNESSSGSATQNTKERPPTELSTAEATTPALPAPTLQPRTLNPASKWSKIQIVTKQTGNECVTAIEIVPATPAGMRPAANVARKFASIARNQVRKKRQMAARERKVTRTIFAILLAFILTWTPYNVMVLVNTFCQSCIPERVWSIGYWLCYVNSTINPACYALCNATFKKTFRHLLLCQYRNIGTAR

Row | EC50 [nM] | Compound
1 | 62 | Cc1nc2sc(C(=O)NCc3ccc4c(c3)OCO4)c(N)c2c(C)c1Cl
2 | 151 | Cc1nc2sc(C(=O)NC3CC3)c(N)c2c(C)c1Cl
3 | 173 | Cc1nc2sc(C(=O)NCc3ccncc3)c(N)c2c(C)c1Cl
4 | 3210 | COc1ccc(C)c2sc(NC(=O)c3ccncc3)nc12
5 | 527 | Cc1nc2sc(C(=O)NCc3ccncn3)c(N)c2c(C)c1Cl
6 | 187 | Cc1nc2sc(C(=O)NCc3nccs3)c(N)c2c(C)c1Cl
7 | 126 | Cc1nc2sc(C(=O)NCc3ccccc3)c(N)c2c(C)c1Cl
8 | 114 | Cc1nc2sc(C(=O)NCc3cccc(F)c3F)c(N)c2c(C)c1Cl
9 | 272 | Cc1nc2sc(C(=O)NCc3cccnc3)c(N)c2c(C)c1Cl
10 | 229 | Cc1nc2sc(C(=O)NCCc3ccncc3)c(N)c2c(C)c1Cl
